Experimental data reported in patent publication US20200071773A1, “TUMOR SIGNATURE FOR METASTASIS, COMPOSITIONS OF MATTER METHODS OF USE THEREOF” (Massachusetts Eye and Ear Infirmary, priority 2017, published 2020).
Entries after “also recorded” stand apart in the source; their conditions may differ.

B1: TGF4β3: recombinant TGFβ3 (R&D systems), CAF-related ligand (protein, UniProt P10600 301-412, looked up)
Transforming growth factor …: ALDTNYCFRNLEENCCVRPLYIDFRQDLGWKWVHEPKGYYANFCSGPCPYLRSADTTHSTVLGLYNTLNPEASASPCCVPQDLEPLTILYYVGRTPKVEQLSNMVVKSCKCS

Tests used:
Assay type in all cases: cell-based, human
SCC9 cells [1] = experiment: scRNA-seq p-EMT gene expression score of treated SCC9 cells; settings: scRNA-seq 4 hours after treatment, relative to vehicle, TGFβ 10 ng/mL, inhibitors: 1 μM A-83-01, or DMH-1, A-83-01, CHIR99021 and Y-27632
Method: RNA-seq of Cell Lines. For scRNA-seq, cells were harvested, stained for viability, and sorted into 96-well plates, as described above. cDNA synthesis, library construction, and sequencing were also performed as described. For bulk RNA, RNA was isolated from 1,000 pooled cells using RNEasy Micro Kit (Qiagen).
(§1) TGFβ Treatment and TGFBI Overexpression. For drug treatment experiments, SCC9 cells were grown in vehicle (4 μM HCl with 1 μg/mL BSA), TGFβ, or TGFβ-inhibitor. For TGFβ-treated cells, 10 ng/mL recombinant TGFβ1 (R&D Systems, Minneapolis, Minn.) or TGFβ3 (R&D systems) was applied. Cells in the TGFβ-inhibitor condition were either grown in 3:1 F12:DMEM (ThermoFisher Scientific) with 1 μM A-83-01 (Tocris Bioscience, Bristol, UK) or small airway basal medium (Lonza, Basel, Switzerland) with four inhibitors of the TGFβ pathway: 1 μM DMH-1, 1 μM A-83-01, 1 μM CHIR99021 (Tocris Bioscience), and 10 μM Y-27632 (Selleck Chemicals, Houston, Tex.). For scRNA-seq, cells in each condition were harvested 4 hours after treatment. […]
Defining Cell and Sample Scores. […] However, such initial scores may be confounded by cell complexity, as cells with higher complexity have more genes detected (i.e. less zeros) and consequently would be expected to have higher cell scores for any gene-set. […] First, all analyzed genes are binned into 25 bins of equal size based on their aggregate expression levels (Ea). […]

SCC9 cells [2] = experiment: Matrigel invasion assay
Method: TGFβ Treatment and TGFBI Overexpression. For drug treatment experiments, SCC9 cells were grown in vehicle (4 μM HCl with 1 μg/mL BSA), TGFβ, or TGFβ-inhibitor. For TGFβ-treated cells, 10 ng/mL recombinant TGFβ1 (R&D Systems, Minneapolis, Minn.) or TGFβ3 (R&D systems) was applied. Cells in the TGFβ-inhibitor condition were either grown in 3:1 F12:DMEM (ThermoFisher Scientific) with 1 μM A-83-01 (Tocris Bioscience, Bristol, UK) or small airway basal medium (Lonza, Basel, Switzerland) with four inhibitors of the TGFβ pathway: 1 μM DMH-1, 1 μM A-83-01, 1 μM CHIR99021 (Tocris Bioscience), and 10 μM Y-27632 (Selleck Chemicals, Houston, Tex.). For scRNA-seq, cells in each condition were harvested 4 hours after treatment. For bulk RNA-seq, cells were harvested 2, 4, or 6 days after treatment and titrated for analysis. For matrigel invasion assay and cell proliferation assays, cells were maintained in the given conditions for the duration of the experiment.
Matrigel Invasion Assay. Matrigel invasion assay was performed as previously described (Puram et al., 2012). […] Cells on the lower surface of the membrane were fixed with methanol, stained with crystal violet, and counted in a blinded manner. […]
Matrigel Invasion Assay. […] Invaded cells in each well were counted in a blinded manner across four distinct high powered fields and averaged. Error was calculated as SEM for a representative experiment.

SCC9 cells [3] = experiment: CellTiter-Glo cell proliferation assay; settings: relative to vehicle
Method: as §1
Cell Proliferation Assay. […] Cells were lysed on days 2, 4, and 6 by adding CTG reagent (Promega), and point luminescence was measured via the BioTek Synergy HTX Platereader (BioTek, Winooski, Vt.). […] CTG luminescence values for individual wells were normalized by subtracting background luminescence (mean luminescence values for wells containing PBS, with CTG reagent added), adjusting for 2 μM adenosine triphosphate (ATP) luminescence measured on the same 96-well plate, and normalizing by numbers of plated cells in each condition (as measured by T0 luminescence).
Cell Proliferation Assay. […] Error was calculated as SEM for a representative experiment.

Molecule | p-EMT program / p-EMT gene expression score (SCC9 cells [1]) | TGFβ response (invasiveness) after genetic inactivation of TGFBI (SCC9 cells [2]; SCC9 TGFBI CRISPR knockout cells versus mock infected) | relative invasiveness (SCC9 cells [2]; SCC9 cells, 24 hours, relative to vehicle) | relative proliferation (SCC9 cells [3])
TGFβ | coherent induction; also recorded: induce a p-EMT-like program | abrogated | increased | reduced
B1 | increased | – | – | –
